This note sets out measurements from ChEMBL document CHEMBL1201862, “PubChem BioAssay data set” (2004).

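Interpolation was linear, between the two tested concentrations surrounding the appropriate level; five concentrations were tested over 48 hours in 96-well plates. At the GI50, growth is halved.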 The source made the active and inactive calls. Rule as the data show it: active = GI50 up to about 1.1 µM and inactive = higher.

Common to all, as to test: NCI tumour cell line growth inhibition, 48 h
In test [1] the test system is NCI-H522.
The subject of test [2] is COLO 205.
Test [3] concerns UACC-62.
The subject of test [4] is OVCAR-3.
For test [5], the system named is SNB-19.
The subject of test [6] is MDA-MB-231.
Test [7] has as its system DU-145.
The subject of test [8] is U-251.
The test system of test [9] is MCF7.
Test [10] concerns HOP-62.
The test system of test [11] is Malme-3M.
The subject of test [12] is T47D.
Test [13] concerns CAKI-1.
Test [14] concerns PC-3.
Test [15] deals with OVCAR-4.
Test [16] relates to LOX IMVI.
Test [17] deals with OVCAR-5.
Test [18] has as its system SNB-75.
Test [19] concerns A549.

With `COC(=O)c1sc(=S)sc1SCc1cccc(CSc2sc(=S)sc2C(=O)OC)c1`, the GI50 in [1] was > 100 µM (inactive); in test [2], > 100 µM (inactive); in test [3], 22.9 µM (inactive); in test [4] it was 63.4 µM (inactive); in test [5] it was 26.8 µM (inactive); in test [6], 36.6 µM (inactive). Also, the GI50 is > 100 µM (inactive) in test [7]; 25.3 µM (inactive) in [8]; > 100 µM (inactive) in [9]; 16.1 µM (inactive) in [10]; > 100 µM (inactive) in test [11]; > 100 µM (inactive) in test [12]. In addition, the GI50 in test [13] is 34.5 µM (inactive); in [14], > 100 µM (inactive); in test [15] it was > 100 µM (inactive); in test [16] it was > 100 µM (inactive); in [17], > 100 µM (inactive); in [18], 11.6 µM (inactive).
`COC(=O)CCCc1nc2ccccc2nc1/N=N/c1ccccc1`: the GI50 in test [1] is 19.1 µM (inactive); in test [19], 29.9 µM (inactive); in test [2], 3.71 µM (inactive); in test [3], > 100 µM (inactive); in test [4] it was 31.3 µM (inactive); in [5] it was 56 µM (inactive). Besides, the GI50 in test [6] is > 100 µM (inactive); in [7] it was 48.3 µM (inactive); in test [8] it was 53.6 µM (inactive); in test [9] it was 30.8 µM (inactive); in test [10], 52.5 µM (inactive); in test [11] it was 17.4 µM (inactive). For the same compound, the GI50 in test [12] was 45.7 µM (inactive); in test [13] it was 41.6 µM (inactive); in [14], 39.5 µM (inactive); in test [15], 50.8 µM (inactive); in test [16], 16.6 µM (inactive); in [17], > 100 µM (inactive). Further, the GI50 in [18] is 38.5 µM (inactive).
`COCCOC(=O)C(C)=[N+]=[N-]`: the GI50 in [1], in [2], in [3], in [4], in test [5] and in test [6] was > 100 µM (inactive) throughout. Also, the GI50 in test [7], in test [8], in [9], in test [10], in [11] and in [12] was > 100 µM (inactive) each time. Besides, the GI50 in test [13], in [14], in test [15], in test [16], in [17] and in test [18] was > 100 µM (inactive) in each case.
With `Cc1ccc(NC(=S)N/N=C(/c2ccccc2)c2ccccn2)cc1`, the GI50 in [1] is 1.31 µM (inactive); in test [19], 0.108 µM (active); in test [2] it was < 0.0166 µM (active); in [3] it was 0.304 µM (active); in [4] it was 0.0169 µM (active); in test [5], 3.27 µM (inactive). For the same compound, the GI50 in [6] is < 0.01 µM (active); in test [7], 0.938 µM (active); in test [8] it was 0.0265 µM (active); in test [9], 0.0164 µM (active); in test [10], 0.16 µM (active); in test [12], < 0.0509 µM (active). Moreover, the GI50 was 0.059 µM (active) in test [13]; < 0.0154 µM (active) in test [14]; 0.241 µM (active) in [15]; 0.0346 µM (active) in [16]; 0.0233 µM (active) in test [17]; 0.343 µM (active) in test [18].
On to `Nc1ccccc1-c1noc(=O)[nH]1`, for which the GI50 in test [1], in [19], in [2], in test [3], in test [4] and in test [5] was > 100 µM (inactive) in each case. The GI50 in [6], in test [7], in test [8], in test [9], in test [10] and in test [12] was > 100 µM (inactive) throughout. In addition, the GI50 in test [13], in test [14], in test [15], in test [16], in test [17] and in test [18] was > 100 µM (inactive) in each case.
Turning to `C=CC(COC(=O)C(C)(C)OC(C)=O)c1ccc(OC(=O)C(C)C)c(OC)c1` (stereo unspecified), the GI50 is 2.23 µM (inactive) in [1]; 19.8 µM (inactive) in test [19]; 2.46 µM (inactive) in test [2]; 11.8 µM (inactive) in [3]; 4.76 µM (inactive) in [4]; 11.1 µM (inactive) in test [5]. Further, the GI50 in test [6] was 2.64 µM (inactive); in test [7], 11.2 µM (inactive); in test [8], 3.59 µM (inactive); in test [9], 2.51 µM (inactive); in test [10], 10.1 µM (inactive); in [11], 2.7 µM (inactive). The GI50 was 3.84 µM (inactive) in [12]; 1.96 µM (inactive) in test [13]; 9.68 µM (inactive) in test [14]; 7.89 µM (inactive) in test [15]; 3.17 µM (inactive) in [16]; 14.6 µM (inactive) in test [17]. In addition, the GI50 in test [18] was 7.16 µM (inactive).
On to `CC(=O)O[C@H]1C(=O)[C@@]2(C)[C@H]([C@H](OC(=O)C3CCCCC3)[C@]3(O)C[C@H](OC(=O)[C@H](O)[C@@H](NC(=O)OC(C)(C)C)c4ccccc4)C(C)=C1C3(C)C)[C@]1(OC(C)=O)CO[C@@H]1C[C@@H]2O`, for which the GI50 in [1] is 0.00918 µM (active); in test [19] it was 0.0194 µM (active); in test [2], 0.013 µM (active); in [3], 0.0129 µM (active); in test [4], 0.00125 µM (active); in test [5] it was 0.0326 µM (active). The GI50 in test [6] is 0.0427 µM (active); in [7], 0.0867 µM (active); in test [8], 0.0137 µM (active); in [9] it was 0.00259 µM (active); in test [10], 0.0181 µM (active); in test [11], 0.177 µM (active). Also, the GI50 was 0.0678 µM (active) in test [12]; 0.0168 µM (active) in [14]; 10.2 µM (inactive) in test [15]; 0.00817 µM (active) in test [16]; 0.0074 µM (active) in test [17]; 0.402 µM (active) in test [18].
With `N#CCC1COc2ccccc2O1` (stereo unspecified), the GI50 in test [1], in test [19], in [2], in test [3], in [5] and in test [6] was > 10 µM (inactive) each time. Besides, the GI50 in [7], in test [8], in [9], in test [10], in [11] and in test [12] was > 10 µM (inactive) throughout. Moreover, the GI50 in [13], in test [14], in [15], in test [16], in test [17] and in [18] was > 10 µM (inactive) throughout.
As for `C[C@]12CC[C@@H]3c4cc(C=O)c(OCc5ccccc5)cc4CC[C@H]3[C@@H]1CCC2OCc1ccccc1` (stereo partly specified), the GI50 in [1] is 80 µM (inactive); in test [19] it was 60.7 µM (inactive); in test [2], > 100 µM (inactive); in test [3], > 100 µM (inactive); in [4] it was > 100 µM (inactive); in [6] it was > 100 µM (inactive). Besides, the GI50 in [7], in test [8], in test [9], in test [10], in test [12] and in test [13] was > 100 µM (inactive) throughout. Also, the GI50 in test [14] was 56.6 µM (inactive); in test [15], > 100 µM (inactive); in [16], > 100 µM (inactive); in test [17], > 100 µM (inactive); in [18] it was > 100 µM (inactive).
Regarding `C[C@H](CCC(=O)O)[C@H]1CC[C@H]2[C@@H]3C(=O)C[C@@H]4C[C@H](O)CC[C@]4(C)[C@H]3C[C@H](O)[C@]12C`, the GI50 in test [1], in test [19], in [2], in [3], in test [5] and in [6] was > 100 µM (inactive) throughout. The GI50 in test [7], in [8], in test [9], in test [10], in test [11] and in [12] was > 100 µM (inactive) each time. Moreover, the GI50 is > 100 µM (inactive) in test [13]; > 100 µM (inactive) in [14]; > 100 µM (inactive) in [15]; > 100 µM (inactive) in test [16]; > 100 µM (inactive) in test [17]; 85.5 µM (inactive) in [18].
